Measured values: PMC11850249, “Typical and atypical metabolic characteristics of three iridaceae isoflavone components: in vitro and in silico studies” (Frontiers in Pharmacology, 2025)
Values joined by “and” are separate entries in the source; they are usually repeats but may differ in a detail not shown here. Equal values may be shown once. Read-outs that look alike come from different tables or passages of the source. One block for each compound: values may come before it.

Key:
CYP2C19 = target: T1, CYP2C19 (Homo sapiens, UniProt P33261); test: Enzyme kinetics with recombinant CYP2C19; format: in vitro ADME
T1 construct: purchased CYPEX (Dundee, United Kingdom)
Method: (§1) A series of concentrations (1–300 μM) of tectorigenin, irigenin, or irisflorentin were added to HLMs or recombinant enzymes. Nonlinear regression was performed on the substrate concentration and generation rate of metabolites to investigate the enzymatic kinetic characteristics of these components in the metabolic system. All experiments were carried out in triplicate.
(§2) A Waters AQUITY UPLC system (Waters, Milford, MA, United States) equipped with a Dikma ODS C18 column (150 × 4.6 mm, 5 μm) was used for separation at 30°C. The binary mobile phase consisted of A (an aqueous solution containing 0.1% acetic acid and 2 mM ammonium acetate) and B (acetonitrile) at a flow rate of 1 mL/min. […] The concentrations of the metabolites were calculated using a standard curve of the substrates.
(§3) GraphPad Prism software 5.0 was used to perform non-linear fitting between the metabolite generation rate (V) and substrate concentration [S]. The appropriateness of the enzyme kinetic model was determined using R ^2 and the Eadie-Hofstee fit. […] Intrinsic clearance (Clint) was calculated according to Equation 3 (for the Michaelis–Menten model) and Equation 4 (for the sigmoidal kinetics model). All data are expressed as mean ± Standard Error (SE). […]

CYP isoenzymes in HLMs = test: Inhibition by chemical CYP inhibitors in HLMs; format: in vitro ADME, human
Method: To investigate the role of specific CYP subtypes in metabolism, tectorigenin, irigenin, or irisflorentin (100 μM) was co-incubated with HLMs (0.5 mg protein/mL), NADPH (1 mM), and MgCl2 (10 mM) in the presence of known CYP inhibitors. The inhibitors used were α-Naph (20 μM) for CYP1A2 ([Zhang Y. J. et al., 2021]), Tryp (2 μM) for CYP2A6 ([Rodríguez-Morató et al., 2017]), Spz (10 μM) for CYP2C9 ([Berger et al., 2018]), Ticlo (2 μM) for CYP2B6 and 2C19 ([Yang et al., 2019]), Qd (8 μM) for CYP2D6 ([Martin et al., 2022]), DDC (100 μM) for CYP2E1 ([Zhang X. et al., 2021]), and KCZ (1 μM) for CYP3A4 ([Berger et al., 2018]). Finally, the samples obtained by centrifugation after adding ice-cold methanol to the incubated samples were analyzed using HPLC. Samples without inhibitors were used as controls to calculate the inhibition rates. Each inhibitor group and the control group were compared. All experiments were carried out in triplicate.

[1] = tested on: recombinant CYP enzymes (CYP1A2, CYP2A6, CYP2C8, CYP2C9, CYP2C19, CYP2D6, CYP2E1, CYP3A4); test: Reaction phenotyping with recombinant CYP enzymes; format: in vitro ADME, human
Method: To assess the role of CYP enzymes to isoflavone metabolism, tectorigenin, irigenin, or irisflorentin (100 μM) was co-incubated with 25 pmol of recombinant CYP enzymes (CYP1A2, CYP2A6, CYP2C8, CYP2C9, CYP2C19, CYP2D6, CYP2E1, and CYP3A4) and MgCl2 (10 mM) in Tris-HCl buffer. The samples were pre-incubated at 37°C for 5 min, and the reaction was initiated by the addition of NADPH. After 30 min of incubation, the supernatant obtained by centrifugation after adding methanol to the incubated sample was analyzed by HPLC. All experiments were carried out in triplicate.

[2] = tested on: human liver microsomes (HLMs); test: Enzyme kinetics in HLMs; format: in vitro ADME; details: for Km: n = 3, read-out: Km for metabolite formation
Method: as §1
(§4) A Waters AQUITY UPLC system (Waters, Milford, MA, United States) equipped with a Dikma ODS C18 column (150 × 4.6 mm, 5 μm) was used for separation at 30°C. The binary mobile phase consisted of A (an aqueous solution containing 0.1% acetic acid and 2 mM ammonium acetate) and B (acetonitrile) at a flow rate of 1 mL/min. The elution settings were as follows: 0 → 5 min: 10% B → 20% B; 5 min → 20 min: 20% B → 50% B; 20 min → 21 min: 50% B → 60% B; 21 min → 25 min: 60% B → 90% B; 25 min → 25.1 min 90%–10% B; 25.1 min → 30 min 10% B. Flow rate: 1 mL/min 260 nm was used as the detection wavelength. Calibration standard curves were generated using a reaction mixture containing tectorigenin, irigenin, or irisflorentin at a concentration range of 0.03–10 µM. The concentrations of the metabolites were calculated using a standard curve of the substrates.
(§5) GraphPad Prism software 5.0 was used to perform non-linear fitting between the metabolite generation rate (V) and substrate concentration [S]. The appropriateness of the enzyme kinetic model was determined using R ^2 and the Eadie-Hofstee fit. The maximum metabolic rate (Vmax) and Michaelis constant (Km) were obtained for kinetic processes that conformed to the Michaelis–Menten model (Equation 1). For kinetic processes that conform to the sigmoidal kinetics model (Equation 2), Vmax, Hill coefficient (n), and S50, concentrations at 50% Vmax were obtained. Intrinsic clearance (Clint) was calculated according to Equation 3 (for the Michaelis–Menten model) and Equation 4 (for the sigmoidal kinetics model). All data are expressed as mean ± Standard Error (SE). One - way analysis of variance was used to compare the differences between different groups. A p-value below 0.05 was regarded as statistically significant. V=VmaxS/Km+S (1) V=Vmax+C^n/S50n+C^n (2) Clint=Vmax/Km (3) Clint=Vmax/S50×n−1/nn−1^1/n (4)

CYP1A2 = target: T2, CYP1A2 (Homo sapiens, UniProt P05177); test: Enzyme kinetics with recombinant CYP1A2; format: in vitro ADME
T2 construct: purchased CYPEX (Dundee, United Kingdom)
T2 sequence (P05177 1-516): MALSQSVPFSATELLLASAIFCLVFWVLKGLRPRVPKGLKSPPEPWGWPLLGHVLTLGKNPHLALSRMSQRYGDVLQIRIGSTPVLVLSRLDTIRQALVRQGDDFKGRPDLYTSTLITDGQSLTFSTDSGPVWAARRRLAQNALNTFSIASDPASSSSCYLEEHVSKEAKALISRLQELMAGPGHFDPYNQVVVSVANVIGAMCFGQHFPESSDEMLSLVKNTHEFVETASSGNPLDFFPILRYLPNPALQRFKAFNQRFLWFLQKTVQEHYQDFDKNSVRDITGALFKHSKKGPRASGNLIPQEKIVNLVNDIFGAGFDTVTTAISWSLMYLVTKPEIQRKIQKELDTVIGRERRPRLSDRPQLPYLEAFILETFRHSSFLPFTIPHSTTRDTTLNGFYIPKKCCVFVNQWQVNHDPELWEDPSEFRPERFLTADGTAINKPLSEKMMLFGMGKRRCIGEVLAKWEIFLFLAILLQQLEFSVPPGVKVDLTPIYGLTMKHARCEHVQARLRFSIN
Method: as §1, §2, §3

rat liver microsomes = tested on: rat liver microsomes; set-up: method as in Zhang Y. J. et al., 2021; details: ref Zhang Y. J. et al., 2021; cited from earlier work
[3] = tested on: human liver microsomes (HLMs); test: Metabolic stability and metabolite identification in HLMs; format: in vitro ADME; details: 30 min
Method: To analyze the metabolic stability, a phase I metabolic system was established. Tectorigenin, irigenin, or irisflorentin (100 μM) was pre-incubated at 37°C with Tris-HCl buffer solution (50 mM), MgCl2 (10 mM), and HLMs (0.5 mg protein/mL). After 5 min, NADPH (1 mM) was added to start the metabolic reactions. After incubation for 30 min, an equal volume of methanol was added to terminate the reaction. After centrifugation, the supernatant was used for metabolite analysis. By comparing the high-performance liquid chromatography (HPLC) chromatograms of the samples incubated for 0 and 30 min to determine the generation of metabolites, mass spectrometry information for the metabolites was obtained using an UPLC-linear ion Trap-Orbitrap Mass Spectrometry method.
A UPLC system coupled with an LTQ-Orbitrap mass spectrometer (Thermo Fisher Scientific, Waltham, MA, United States) was used. The mass spectrometer was equipped with an electrospray ionization source operating in negative ion mode for tectorigenin and irigenin, and in positive ion mode for irisflorentin. The following parameter settings were used: sheath gas flow rate, 45 arb; auxiliary gas flow rate, 15 arb; capillary temperature, 350°C; spray voltage, 3.8 kV; and heating component temperature, 300°C. Xcalibur software (Thermo Fisher Scientific) was employed to acquire and process the data.

CYP2E1 = target: T3, CYP2E1 (Homo sapiens, UniProt P05181); test: Enzyme kinetics with recombinant CYP2E1; format: in vitro ADME
T3 construct: purchased CYPEX (Dundee, United Kingdom)
Method: as §1, §2, §3

CYP3A4 = target: T4, CYP3A4 (Homo sapiens, UniProt P08684); test: Enzyme kinetics with recombinant CYP3A4; format: in vitro ADME
T4 construct: purchased CYPEX (Dundee, United Kingdom)
Method: as §1, §2, §3

Enzyme kinetics in HLMs = format: in vitro ADME, human; details: human, human liver microsomes, calculated from Vmax and Km or S50, read-out: Clint for metabolite formation
Method: as §1, §4, §5

[4] = Michaelis-Menten model, mean ± SE

T1 sequence (P33261 whole entry): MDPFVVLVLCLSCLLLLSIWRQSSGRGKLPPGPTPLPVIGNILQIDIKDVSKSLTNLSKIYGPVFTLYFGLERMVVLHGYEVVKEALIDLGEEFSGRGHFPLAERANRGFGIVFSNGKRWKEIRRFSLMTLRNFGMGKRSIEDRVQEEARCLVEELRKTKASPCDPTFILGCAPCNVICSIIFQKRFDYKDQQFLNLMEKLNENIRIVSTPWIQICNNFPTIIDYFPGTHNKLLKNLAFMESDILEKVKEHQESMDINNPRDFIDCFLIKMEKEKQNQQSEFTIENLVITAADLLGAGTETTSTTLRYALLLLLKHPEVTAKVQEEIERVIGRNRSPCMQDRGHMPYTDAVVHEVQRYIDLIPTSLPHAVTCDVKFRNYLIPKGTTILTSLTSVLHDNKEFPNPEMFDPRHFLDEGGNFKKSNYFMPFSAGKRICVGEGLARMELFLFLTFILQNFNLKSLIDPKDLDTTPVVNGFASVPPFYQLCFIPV
T4 sequence (P08684 whole entry): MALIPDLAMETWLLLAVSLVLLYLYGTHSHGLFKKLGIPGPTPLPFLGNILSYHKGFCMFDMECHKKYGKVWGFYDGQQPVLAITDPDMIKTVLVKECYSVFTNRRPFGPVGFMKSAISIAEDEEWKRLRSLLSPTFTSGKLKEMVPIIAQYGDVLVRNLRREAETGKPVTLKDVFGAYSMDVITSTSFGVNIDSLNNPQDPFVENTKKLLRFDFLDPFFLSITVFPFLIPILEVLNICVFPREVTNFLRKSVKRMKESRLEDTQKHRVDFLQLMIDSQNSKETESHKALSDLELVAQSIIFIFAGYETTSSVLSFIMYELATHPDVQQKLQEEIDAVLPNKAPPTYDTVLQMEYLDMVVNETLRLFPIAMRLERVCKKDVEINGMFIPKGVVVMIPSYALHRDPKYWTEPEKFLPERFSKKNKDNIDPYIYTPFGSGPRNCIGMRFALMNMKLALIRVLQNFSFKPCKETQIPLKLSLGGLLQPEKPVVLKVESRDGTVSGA
T3 sequence (P05181 whole entry): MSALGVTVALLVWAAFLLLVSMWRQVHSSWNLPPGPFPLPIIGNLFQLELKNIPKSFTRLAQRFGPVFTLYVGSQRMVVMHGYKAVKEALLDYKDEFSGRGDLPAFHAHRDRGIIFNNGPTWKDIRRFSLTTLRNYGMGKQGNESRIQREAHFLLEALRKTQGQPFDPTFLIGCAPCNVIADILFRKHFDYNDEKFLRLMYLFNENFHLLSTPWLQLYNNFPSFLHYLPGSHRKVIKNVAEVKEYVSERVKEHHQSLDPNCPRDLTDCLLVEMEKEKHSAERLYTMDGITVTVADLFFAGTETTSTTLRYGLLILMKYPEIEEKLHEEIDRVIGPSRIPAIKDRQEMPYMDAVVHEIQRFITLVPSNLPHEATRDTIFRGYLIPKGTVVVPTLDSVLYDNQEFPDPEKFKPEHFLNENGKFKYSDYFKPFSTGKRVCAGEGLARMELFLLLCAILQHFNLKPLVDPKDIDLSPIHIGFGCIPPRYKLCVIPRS

SMILES: COc1cc(-c2coc3cc(O)c(OC)c(O)c3c2=O)cc(O)c1OC [Irigenin]
- Clint (CYP2C19): 0.5 μL/min/pmol CYP
- effect of Ticlo on metabolite formation (in words) (CYP isoenzymes in HLMs): significantly inhibited
- recombinant CYP subtypes that catalyze metabolite formation ([1]; 100 μM substrate, 25 pmol recombinant CYP, 30 min, eight subtypes measured): CYP3A4, CYP2C9, and CYP2C19
- metabolism by CYP2C19 relative to CYP2C9 and CYP3A4 ([1]; recombinant enzymes, CYP2C19 vs CYP2C9 and CYP3A4): 10–29 times
- enzyme kinetic model (Eadie-Hofstee plot) [2]: Michaelis–Menten equation
- Vmax for metabolite formation ([2]; Michaelis-Menten model, mean ± SE, n = 3): 263 ± 13.6 pmol/min/mg
- Km [2, 4]: 17.5 ± 3.2 µM

- Hill coefficient (CYP1A2; recombinant CYP1A2, sigmoidal kinetics): 1.5 ± 0.1 and 1.5
- Clint (CYP1A2; recombinant CYP1A2, sigmoidal kinetics model): 1.5 μL/min/pmol CYP
- effect of Ticlo on metabolite formation (in words) (CYP isoenzymes in HLMs): no effect or a weak inhibitory effect
- effect of α-Naph on metabolite formation (in words) (CYP isoenzymes in HLMs): strong inhibition
- metabolism by CYP1A2 relative to CYP2C9, CYP2C19 and CYP3A4 ([1]; human, 30 min, 100 μM): 21–55 times
- recombinant CYP subtypes that catalyze metabolite formation ([1]; human, 30 min, 100 μM): CYP1A2, CYP2C19, and CYP3A4
- enzyme kinetic model (Eadie-Hofstee plot) [2]: sigmoidal kinetics characteristic
- Vmax for metabolite formation ([2]; mean ± SE, n = 3): 235.4 ± 3.2 pmol/min/mg protein
- Hill coefficient (n) ([2]; sigmoidal kinetics model): 1.8 ± 0.1
- S50 ([2]; sigmoidal kinetics model, mean ± SE, n = 3): 32.9 ± 1.0 µM
SMILES: COc1cc(-c2coc3cc4c(c(OC)c3c2=O)OCO4)cc(OC)c1OC [Irisflorentin]
- Hill coefficient (rat liver microsomes): 1.48
- major metabolite after incubation with HLMs ([3]; human, 100 μM): 6,7-dihydroxy-5,3′,4′,5′-tetramethoxy isoflavone

- Clint (CYP2E1): 0.2 μL/min/pmol CYP
- effect of Ticlo on metabolite formation (in words) (CYP isoenzymes in HLMs; inhibitor Ticlo (CYP2B6 and 2C19 inhibitor), HLMs): no effect or a weak inhibitory effect
- effect of α-Naph on metabolite formation (in words) (CYP isoenzymes in HLMs; inhibitor α-Naph (CYP1A2 inhibitor), HLMs): slight inhibition
- Clint (CYP3A4): 0.2 μL/min/pmol CYP
- production of metabolites by CYP2E1 and CYP3A4 relative to the other subtypes ([1]; human, 30 min, 100 μM): 3–38 times
- recombinant CYP subtypes that catalyze metabolite formation ([1]; human, 30 min, 100 μM): CYP1A2, CYP2C19, CYP2E1, and CYP3A4
- major metabolite after incubation with HLMs ([3]; 100 μM substrate, HLMs 0.5 mg protein/mL, NADPH 1 mM): hydroxylation metabolite of tectorigenin
- microsomal CLint (Enzyme kinetics in HLMs): 2.6 µL/min/mg
- enzyme kinetic model (Eadie-Hofstee plot) [2]: Michaelis–Menten equation
- Km [2, 4]: 106 ± 7.3 µM
- Vmax for metabolite formation ([2]; mean ± SE, n = 3): 275.9 ± 7.6 pmol/min/mg protein
SMILES: COc1c(O)cc2occ(-c3ccc(O)cc3)c(=O)c2c1O [Tectorigenin]
